Earlier results, collected in patent US7727757B2, “Methods of eliciting antiviral immune responses utilizing viral particles comprising photoinactivated reverse transcriptase” (priority 1998, dated 2010).
“Also recorded” adds a separate entry of the source.

What was measured:
[1] = test system: HIV; details: short exposure, without photoinactivation
[2] = test system: HIV infected cells; details: compound provided to HIV infected cells
[3] = biological target: HIV-1 reverse transcriptase (Human immunodeficiency virus type 1 group M subtype B, UniProt P04585); details: for inhibition of RT (in words): prior-art statement; for IC50: value stated without method or source, used to set the incubation concentration, read-out: IC50 (50% inhibitory concentration)
[4] = test system: ERT in HIV virions

Compound | HIV infectivity after exposure of isolated virus [1] | infectivity of nascent virus from HIV infected cells [2] | inhibition of RT (in words) [3] | IC50 [3] | inhibition of ERT in HIV virions [4]
CC(C)=CCOc1cc(NC(=S)c2ccoc2C)ccc1Cl [UC781™, N-[4-chloro-3-(3-methyl-2-butenyloxy)phenyl]-2-methyl-3-furanocarbothiamide] | eliminate HIV infectivity | production of noninfectious nascent virus; also recorded: inactivate nascent virus from HIV-infected cells | potent inhibitors of RT | 0.2 nM | inhibit ERT in HIV virions
CCN1c2cc(N=[N+]=[N-])ccc2N(C)C(=O)c2cccnc21 [azido dipyridodiazepinona, 9-Azido-5,6-dihydro-11-ethyl-6-methyl-11H-pyrido[2,3-b][1,5]benzodiazepin-5-one] | – | – | potent inhibitors of RT | 160 nM | –
